Test results: patent publication US20240058347A1, “DOSAGES FOR HDAC TREATMENT WITH REDUCED SIDE EFFECTS” (VIRACTA THERAPEUTICS, INC., priority 2019, published 2024)

Columns and labels:
HDAC1 = HDAC1 (Homo sapiens, UniProt Q13547); assay: in vitro HDAC inhibition assay (fluorescence), HDAC1; format: biochemical
Experimental: (§1) Briefly, all of the compounds are dissolved in DMSO. A series of dilutions of the compounds were prepared with 10% DMSO in HDAC assay buffer and 5 μl of the dilution was added to a 50 μl reaction so that the final concentration of DMSO is 1% in all of reactions. The compounds were pre-incubated in duplicate at RT for 1 hour in a mixture containing HDAC assay buffer, 5 μg BSA, HDAC enzyme (see Table 7) and a the particular HDACi. After 1 hour, the enzymatic reactions were initiated by the addition of HDAC substrate (BPS Bioscience) to a final concentration of 10 μM or 2 μM. The enzymatic reaction proceeded for 30 minutes at 37° C.
(§2) HDAC activity assays were performed in duplicates at each concentration. The fluorescent intensity data were analyzed using the computer software, Graphpad Prism. In the absence of the compound, the fluorescent intensity (Ft) in each data set was defined as 100% activity. In the absence of HDAC, the fluorescent intensity (Fb) in each data set was defined as 0% activity. The percent activity in the presence of each compound was calculated according to the following equation: % activity=(F−Fb)/(Ft−Fb), where F=the fluorescent intensity in the presence of the compound. […]

HDAC4 = HDAC4 (Homo sapiens, UniProt P56524); assay: in vitro HDAC inhibition assay (fluorescence), HDAC4; format: biochemical; conditions: HDAC4
HDAC4, sequence (P56524 whole entry): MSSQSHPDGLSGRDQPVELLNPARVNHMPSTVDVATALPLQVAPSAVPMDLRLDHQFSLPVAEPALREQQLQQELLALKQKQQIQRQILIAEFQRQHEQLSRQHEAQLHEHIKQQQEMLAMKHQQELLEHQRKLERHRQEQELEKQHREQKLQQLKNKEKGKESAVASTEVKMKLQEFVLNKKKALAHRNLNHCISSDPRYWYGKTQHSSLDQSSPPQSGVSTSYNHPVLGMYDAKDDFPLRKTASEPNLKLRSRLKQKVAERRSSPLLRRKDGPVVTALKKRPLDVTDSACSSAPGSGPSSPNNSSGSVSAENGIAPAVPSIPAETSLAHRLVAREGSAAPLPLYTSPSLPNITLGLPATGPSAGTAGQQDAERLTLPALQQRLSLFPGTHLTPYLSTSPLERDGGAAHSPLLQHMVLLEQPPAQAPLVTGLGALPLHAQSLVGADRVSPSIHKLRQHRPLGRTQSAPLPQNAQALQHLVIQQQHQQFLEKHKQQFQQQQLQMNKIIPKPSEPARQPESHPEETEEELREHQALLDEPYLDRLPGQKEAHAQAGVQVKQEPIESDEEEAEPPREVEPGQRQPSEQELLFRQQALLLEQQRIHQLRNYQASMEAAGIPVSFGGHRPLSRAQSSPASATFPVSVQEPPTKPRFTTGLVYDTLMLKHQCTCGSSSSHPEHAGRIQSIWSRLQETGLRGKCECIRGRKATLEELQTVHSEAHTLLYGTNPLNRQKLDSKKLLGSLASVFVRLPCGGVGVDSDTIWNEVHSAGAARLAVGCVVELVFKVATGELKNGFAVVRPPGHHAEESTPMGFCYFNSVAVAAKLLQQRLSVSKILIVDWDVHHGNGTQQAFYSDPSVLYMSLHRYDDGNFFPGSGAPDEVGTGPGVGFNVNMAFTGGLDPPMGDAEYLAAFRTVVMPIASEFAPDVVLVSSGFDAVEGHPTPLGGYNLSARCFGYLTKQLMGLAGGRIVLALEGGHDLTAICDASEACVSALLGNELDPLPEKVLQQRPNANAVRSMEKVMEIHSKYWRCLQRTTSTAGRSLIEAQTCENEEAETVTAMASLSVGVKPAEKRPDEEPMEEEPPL
Experimental: as §1, §2

HDAC5 = HDAC5 (Homo sapiens, UniProt Q9UQL6); assay: in vitro HDAC inhibition assay (fluorescence), HDAC5; format: biochemical
HDAC5, sequence (Q9UQL6 whole entry): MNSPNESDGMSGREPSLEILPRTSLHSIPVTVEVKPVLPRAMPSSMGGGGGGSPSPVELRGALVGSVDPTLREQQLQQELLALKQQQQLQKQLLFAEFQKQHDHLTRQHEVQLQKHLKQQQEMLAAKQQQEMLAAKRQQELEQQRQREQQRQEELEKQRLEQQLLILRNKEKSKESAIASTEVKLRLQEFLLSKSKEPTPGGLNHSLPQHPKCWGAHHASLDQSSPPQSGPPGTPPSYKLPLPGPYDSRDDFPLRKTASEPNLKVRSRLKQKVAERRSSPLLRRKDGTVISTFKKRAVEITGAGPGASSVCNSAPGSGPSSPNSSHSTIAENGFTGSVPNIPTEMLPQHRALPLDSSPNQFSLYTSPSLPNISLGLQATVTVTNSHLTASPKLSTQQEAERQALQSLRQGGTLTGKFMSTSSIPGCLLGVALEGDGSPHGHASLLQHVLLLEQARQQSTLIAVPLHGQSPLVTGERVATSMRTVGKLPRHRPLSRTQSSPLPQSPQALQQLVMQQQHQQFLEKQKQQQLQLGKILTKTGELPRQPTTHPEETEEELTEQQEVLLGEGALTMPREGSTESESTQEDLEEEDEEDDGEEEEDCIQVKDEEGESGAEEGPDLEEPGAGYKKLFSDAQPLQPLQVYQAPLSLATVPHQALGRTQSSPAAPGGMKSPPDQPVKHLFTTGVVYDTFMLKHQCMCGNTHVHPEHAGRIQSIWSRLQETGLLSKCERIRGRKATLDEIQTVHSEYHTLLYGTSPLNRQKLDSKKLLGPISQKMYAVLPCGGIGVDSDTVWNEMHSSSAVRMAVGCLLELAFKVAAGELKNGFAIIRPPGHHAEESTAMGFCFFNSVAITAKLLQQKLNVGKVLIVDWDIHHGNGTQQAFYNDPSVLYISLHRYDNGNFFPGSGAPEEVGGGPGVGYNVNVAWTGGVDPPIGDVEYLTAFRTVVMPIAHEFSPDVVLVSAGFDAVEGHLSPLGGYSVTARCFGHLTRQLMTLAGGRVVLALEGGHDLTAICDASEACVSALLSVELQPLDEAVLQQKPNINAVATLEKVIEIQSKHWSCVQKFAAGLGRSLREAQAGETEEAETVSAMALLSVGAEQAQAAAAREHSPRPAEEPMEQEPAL
Experimental: as §1, §2

HDAC2 = HDAC2 (Homo sapiens, UniProt Q92769); assay: biochemical
HDAC2, sequence (Q92769 whole entry): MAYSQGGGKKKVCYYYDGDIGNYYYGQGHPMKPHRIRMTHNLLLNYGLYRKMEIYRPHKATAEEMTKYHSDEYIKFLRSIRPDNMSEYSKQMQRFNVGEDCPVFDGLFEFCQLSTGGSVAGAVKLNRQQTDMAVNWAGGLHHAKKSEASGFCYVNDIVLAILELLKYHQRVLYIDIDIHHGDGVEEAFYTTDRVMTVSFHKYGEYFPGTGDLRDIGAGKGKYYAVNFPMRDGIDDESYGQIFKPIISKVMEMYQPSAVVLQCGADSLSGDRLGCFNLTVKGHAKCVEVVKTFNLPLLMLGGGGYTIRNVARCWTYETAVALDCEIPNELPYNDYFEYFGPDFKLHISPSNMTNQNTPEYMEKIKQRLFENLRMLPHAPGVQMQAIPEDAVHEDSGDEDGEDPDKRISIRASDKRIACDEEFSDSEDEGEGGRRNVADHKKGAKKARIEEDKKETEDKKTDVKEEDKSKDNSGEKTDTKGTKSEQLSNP
Experimental: as §1
(§3) HDAC activity assays were performed in duplicates at each concentration. The fluorescent intensity data were analyzed using the computer software, Graphpad Prism. In the absence of the compound, the fluorescent intensity (Ft) in each data set was defined as 100% activity. In the absence of HDAC, the fluorescent intensity (Fb) in each data set was defined as 0% activity. The percent activity in the presence of each compound was calculated according to the following equation: % activity=(F−Fb)/(Ft−Fb), where F=the fluorescent intensity in the presence of the compound.
(§4) The values of % activity versus a series of compound concentrations were then plotted using non-linear regression analysis of Sigmoidal dose-response curve generated with the equation Y=B+(T−B)/1+10^((Log C50−X)×Hill Slope), where Y=percent activity, B=minimum percent activity, T=maximum percent activity, X=logarithm of compound and Hill Slope=slope factor or Hill coefficient. The IC50 value was determined by the concentration causing a half-maximal percent activity.

HDAC3/NCOR2 = HDAC3/NCOR2 (Homo sapiens, UniProt O15379); assay: biochemical
HDAC3/NCOR2, sequence (O15379 whole entry): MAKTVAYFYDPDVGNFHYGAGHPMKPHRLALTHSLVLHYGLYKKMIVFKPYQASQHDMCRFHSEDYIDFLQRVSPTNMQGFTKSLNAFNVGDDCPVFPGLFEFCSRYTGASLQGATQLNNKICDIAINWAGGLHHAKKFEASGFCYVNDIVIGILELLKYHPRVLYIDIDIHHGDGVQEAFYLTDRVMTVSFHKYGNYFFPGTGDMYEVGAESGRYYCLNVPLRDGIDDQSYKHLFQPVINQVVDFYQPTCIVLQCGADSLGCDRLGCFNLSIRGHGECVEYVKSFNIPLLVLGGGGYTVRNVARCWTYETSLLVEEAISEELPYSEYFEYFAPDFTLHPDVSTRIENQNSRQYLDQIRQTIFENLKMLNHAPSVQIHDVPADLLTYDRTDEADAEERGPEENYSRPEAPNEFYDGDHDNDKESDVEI
HDAC3/NCOR2, sequence (Q9Y618 395-489 partner limits assumed): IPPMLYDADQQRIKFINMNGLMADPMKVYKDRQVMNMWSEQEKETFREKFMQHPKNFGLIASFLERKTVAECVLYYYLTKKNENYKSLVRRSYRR
Experimental: as §1, §3, §4

HDAC6 = target: T1, HDAC6 (Homo sapiens, UniProt Q9UBN7); assay: biochemical
T1 sequence (Q9UBN7 1-1215): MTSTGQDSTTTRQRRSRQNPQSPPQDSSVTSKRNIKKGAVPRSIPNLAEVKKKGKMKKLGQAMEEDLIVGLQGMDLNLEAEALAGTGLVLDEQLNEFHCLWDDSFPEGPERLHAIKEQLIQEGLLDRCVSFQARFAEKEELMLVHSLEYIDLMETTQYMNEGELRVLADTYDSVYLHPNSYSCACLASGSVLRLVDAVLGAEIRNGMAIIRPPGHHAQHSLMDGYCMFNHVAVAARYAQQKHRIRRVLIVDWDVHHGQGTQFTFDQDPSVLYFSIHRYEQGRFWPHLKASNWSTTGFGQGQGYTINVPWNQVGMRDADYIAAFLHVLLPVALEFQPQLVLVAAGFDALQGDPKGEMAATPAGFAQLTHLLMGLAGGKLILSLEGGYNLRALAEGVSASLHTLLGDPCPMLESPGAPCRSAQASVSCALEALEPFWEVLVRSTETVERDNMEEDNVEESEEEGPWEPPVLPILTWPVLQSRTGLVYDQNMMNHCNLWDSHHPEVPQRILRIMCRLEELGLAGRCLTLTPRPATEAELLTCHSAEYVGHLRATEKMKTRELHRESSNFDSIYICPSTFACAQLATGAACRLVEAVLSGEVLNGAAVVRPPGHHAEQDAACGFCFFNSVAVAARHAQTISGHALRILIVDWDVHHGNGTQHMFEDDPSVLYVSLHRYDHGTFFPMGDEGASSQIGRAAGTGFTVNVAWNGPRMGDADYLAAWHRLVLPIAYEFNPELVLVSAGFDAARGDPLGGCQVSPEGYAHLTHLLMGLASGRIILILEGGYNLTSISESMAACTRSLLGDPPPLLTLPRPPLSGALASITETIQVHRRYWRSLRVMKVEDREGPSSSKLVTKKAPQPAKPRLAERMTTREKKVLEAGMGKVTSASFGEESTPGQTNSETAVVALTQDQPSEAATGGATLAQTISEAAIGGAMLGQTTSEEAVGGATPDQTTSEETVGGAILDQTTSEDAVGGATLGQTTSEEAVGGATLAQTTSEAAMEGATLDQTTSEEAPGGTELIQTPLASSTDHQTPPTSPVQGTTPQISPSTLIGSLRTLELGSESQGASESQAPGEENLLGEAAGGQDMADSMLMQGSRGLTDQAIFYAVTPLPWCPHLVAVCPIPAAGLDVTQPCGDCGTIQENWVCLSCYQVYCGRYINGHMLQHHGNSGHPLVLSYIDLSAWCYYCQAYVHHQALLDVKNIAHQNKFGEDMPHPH
Experimental: as §1, §3, §4

HDAC8 = target: T2, HDAC8 (Homo sapiens, UniProt Q9BY41); assay: biochemical
T2 sequence (Q9BY41 1-377): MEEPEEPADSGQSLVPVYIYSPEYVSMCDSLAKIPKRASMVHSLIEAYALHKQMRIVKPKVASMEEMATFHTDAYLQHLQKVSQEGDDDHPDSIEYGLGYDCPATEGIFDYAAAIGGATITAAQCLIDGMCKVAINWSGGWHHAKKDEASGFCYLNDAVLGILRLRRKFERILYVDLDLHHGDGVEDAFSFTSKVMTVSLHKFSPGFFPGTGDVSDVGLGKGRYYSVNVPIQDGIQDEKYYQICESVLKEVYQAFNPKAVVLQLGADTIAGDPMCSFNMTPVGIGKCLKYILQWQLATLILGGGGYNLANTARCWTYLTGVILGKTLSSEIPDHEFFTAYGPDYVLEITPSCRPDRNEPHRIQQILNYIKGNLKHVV
Experimental: as §1, §3, §4

HDAC9 = HDAC9 (Homo sapiens, UniProt Q9UKV0); assay: in vitro HDAC inhibition assay (fluorescence), HDAC9; format: biochemical; conditions: HDAC9
HDAC9, sequence (Q9UKV0 whole entry): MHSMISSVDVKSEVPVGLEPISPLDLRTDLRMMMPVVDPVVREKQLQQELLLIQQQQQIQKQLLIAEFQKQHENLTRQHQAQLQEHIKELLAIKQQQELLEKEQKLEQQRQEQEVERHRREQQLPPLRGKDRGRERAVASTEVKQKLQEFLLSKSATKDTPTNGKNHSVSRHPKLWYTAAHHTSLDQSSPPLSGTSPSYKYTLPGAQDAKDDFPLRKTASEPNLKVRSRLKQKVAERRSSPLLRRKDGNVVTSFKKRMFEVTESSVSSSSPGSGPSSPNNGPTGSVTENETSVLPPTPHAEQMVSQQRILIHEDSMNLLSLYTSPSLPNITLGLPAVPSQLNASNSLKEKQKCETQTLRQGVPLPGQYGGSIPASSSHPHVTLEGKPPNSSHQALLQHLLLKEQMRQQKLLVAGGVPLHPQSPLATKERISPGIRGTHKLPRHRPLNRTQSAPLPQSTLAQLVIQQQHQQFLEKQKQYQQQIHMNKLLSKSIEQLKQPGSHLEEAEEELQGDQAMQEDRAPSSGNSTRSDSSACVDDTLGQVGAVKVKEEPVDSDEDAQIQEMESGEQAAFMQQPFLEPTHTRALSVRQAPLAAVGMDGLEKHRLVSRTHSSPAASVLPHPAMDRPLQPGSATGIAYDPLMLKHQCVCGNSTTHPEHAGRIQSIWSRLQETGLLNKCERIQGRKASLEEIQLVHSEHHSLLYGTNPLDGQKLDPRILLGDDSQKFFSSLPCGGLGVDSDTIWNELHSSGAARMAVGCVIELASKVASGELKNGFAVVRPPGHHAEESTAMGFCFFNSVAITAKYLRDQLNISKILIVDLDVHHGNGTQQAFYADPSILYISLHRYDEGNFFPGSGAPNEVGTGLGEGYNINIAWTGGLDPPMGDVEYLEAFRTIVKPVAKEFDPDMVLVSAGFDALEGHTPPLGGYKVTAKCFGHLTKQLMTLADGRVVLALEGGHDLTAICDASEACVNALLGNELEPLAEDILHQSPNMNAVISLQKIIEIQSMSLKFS
Experimental: as §1, §2

[1] = system: Histone 3 acetylation in peripheral blood mononuclear cells; assay: H3 acetylation in peripheral blood mononuclear cells of healthy donors, flow cytometry; format: cell-based, humans; conditions: PBMC of healthy donors
Excerpt: Percentage of cells with H3 acetylation, as determined by flow cytometry, is shown.
Since H3 acetylation is a pharmacodynamic biomarker of Nstat activity, acetylation of H3 was examined in treated cells.

[2] = system: P3HR1 Burkitt's lymphoma cells; assay: Cell death (7AAD staining) of EBV infected cell line, Nstat 3 days then ganciclovir 3 days; format: cell-based; conditions: FIG. 4
Experimental: All test conditions were run in triplicate. Cell death was measured by 7AAD staining.

HDAC1, sequence (Q13547 whole entry): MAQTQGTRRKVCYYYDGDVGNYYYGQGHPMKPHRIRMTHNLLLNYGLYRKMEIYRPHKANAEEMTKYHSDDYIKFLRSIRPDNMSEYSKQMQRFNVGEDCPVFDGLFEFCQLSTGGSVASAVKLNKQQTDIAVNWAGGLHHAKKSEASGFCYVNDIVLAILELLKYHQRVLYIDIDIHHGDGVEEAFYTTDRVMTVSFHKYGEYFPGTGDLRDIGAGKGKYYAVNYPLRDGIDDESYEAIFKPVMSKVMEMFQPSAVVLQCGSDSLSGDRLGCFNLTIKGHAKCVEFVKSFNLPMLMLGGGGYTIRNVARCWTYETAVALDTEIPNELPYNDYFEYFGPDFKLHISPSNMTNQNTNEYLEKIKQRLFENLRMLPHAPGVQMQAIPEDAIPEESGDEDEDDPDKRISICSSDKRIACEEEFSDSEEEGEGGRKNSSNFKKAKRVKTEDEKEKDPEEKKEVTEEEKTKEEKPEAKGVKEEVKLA

O=C(NO)c1cnc(N2CC3C(C2)C3NCc2ccc3cc(F)ccc3n2)nc1 (stereo not drawn) [Nstat, 2-(6-{[(6-Fluoroquinolin-2-yl)methyl]amino}-3-azabicyclo[3.1.0]hex-3-yl)-N-hydroxypyrimidine-5-carboxamide]
IC50 (HDAC1): 3.6 nM
IC50 (HDAC4): 1000 nM
IC50 (HDAC5): 390 nM
IC50 (HDAC2): 12 nM
IC50 (HDAC3/NCOR2): 12 nM
IC50 (HDAC6): 450 nM
IC50 (HDAC8): 860 nM
IC50 (HDAC9): 440 nM
potency in inducing elevated levels of Histone 3 acetylation ([1]; even at a dose of 100 nM, FIG. 2): much more potent than entinostat
duration of effect on H3 acetylation (time-course) ([1]; even at doses down to 10 nM, FIG. 3): long-lasting
increase of cytotoxic activity when combined with Ganciclovir ([2]; Nstat 3 days, wash, ganciclovir 3 days): ~40%
increased cytotoxicity with ganciclovir after Nstat removal ([2]; after 3 days of washout): seen even after Nstat removal
